# Test results reported in article PMC10489980, “Design of Potent and Salt-Insensitive Antimicrobial Branched Peptides” (Polymers, 2023).
# Read-outs that look alike come from different tables or passages of the source. Residues, ends and D or L forms follow the SMILES beside them.
# What was measured:
# Assay type in all cases: cell-based
# Candida kefyr ATCC 37095 = tested on: Candida kefyr ATCC 37095
# Summary of the method: (§1)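 Two-stage radial diffusion: 1–4 × 10^6 CFU/mL organism in underlay gel (10 mM sodium phosphate, 0.03% TSB, 0.02% Tween-20, plus 100 mM NaCl for high-salt). Peptides in seven half-log dilutions diffused 3 h at 37 °C, then 6% TSB agarose overlay, 16–24 h at 37 °C. MIC (µM) taken from x-intercept of clear-zone dose-response.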
# [1] = tested on: Staphylococcus aureus 29213
# Summary of the method: as §1
# [2] = tested on: Candida albicans ATCC 37092
# Summary of the method: as §1
# [3] = tested on: Pseudomonas aeruginosa ATCC 27853
# Summary of the method: as §1
# [4] = tested on: Escherichia coli ATCC 25922
# Summary of the method: as §1
# [5] = tested on: Klebsiella oxytoca ATCC 49131
# Summary of the method: as §1
# [6] = tested on: Candida tropicalis ATCC 37097
# Summary of the method: as §1
# [7] = tested on: Proteus vulgaris ATCC 49132
# Summary of the method: as §1
# [8] = tested on: Enterococcus faecalis ATCC 29212
# Summary of the method: as §1
# [9] = tested on: Micrococcus luteus ATCC 49,732
# Summary of the method: as §1
SMILES,"MIC, C. kefyr, H-Salt (Candida kefyr ATCC 37095; ATCC 37095, 3 h) [µM]","MIC, C. kefyr, L-Salt (Candida kefyr ATCC 37095; ATCC 37095, 3 h) [µM]","MIC, S. aureus, H-Salt ([1]; 29213, 3 h) [µM]","MIC, S. aureus, L-Salt ([1]; 29213, 3 h) [µM]","MIC, C. albicans, H-Salt ([2]; ATCC 37092, 3 h) [µM]","MIC, C. albicans, L-Salt ([2]; ATCC 37092, 3 h) [µM]","MIC, P. aeruginosa, H-Salt ([3]; ATCC 27853, 3 h) [µM]","MIC, P. aeruginosa, L-Salt ([3]; ATCC 27853, 3 h) [µM]","MIC, E. coli, H-Salt ([4]; ATCC 25922, 3 h) [µM]","MIC, E. coli, L-Salt ([4]; ATCC 25922, 3 h) [µM]","MIC, K. oxytoca, H-Salt ([5]; ATCC 49131, 3 h) [µM]","MIC, K. oxytoca, L-Salt ([5]; ATCC 49131, 3 h) [µM]","MIC, C. tropicalis, H-Salt ([6]; ATCC 37097, 3 h) [µM]","MIC, C. tropicalis, L-Salt ([6]; ATCC 37097, 3 h) [µM]","MIC, P. vulgaris, H-Salt ([7]; ATCC 49132, 3 h) [µM]","MIC, P. vulgaris, L-Salt ([7]; ATCC 49132, 3 h) [µM]","MIC, E. faecalis, H-Salt ([8]; ATCC 29212, 3 h) [µM]","MIC, E. faecalis, L-Salt ([8]; ATCC 29212, 3 h) [µM]","MIC, M. luteus, H-Salt ([9]; ATCC 49, 3 h) [µM]","MIC, M. luteus, L-Salt ([9]; ATCC 49, 3 h) [µM]",also measured
"CC(C)C[C@H](NC(=O)[C@@H](N)CCCNC(=N)N)C(=O)N[C@@H](Cc1ccc(O)cc1)C(=O)N[C@@H](CCCNC(=N)N)C(=O)NCCC[C@H](NC(=O)[C@H](CCCNC(=O)[C@H](CCCNC(=N)N)NC(=O)[C@H](Cc1ccc(O)cc1)NC(=O)[C@H](CC(C)C)NC(=O)[C@@H](N)CCCNC(=N)N)NC(=O)[C@H](CCCNC(=O)[C@H](CCCNC(=N)N)NC(=O)[C@H](Cc1ccc(O)cc1)NC(=O)[C@H](CC(C)C)NC(=O)[C@@H](N)CCCNC(=N)N)NC(=O)[C@H](CCCNC(=O)[C@H](CCCNC(=N)N)NC(=O)[C@H](Cc1ccc(O)cc1)NC(=O)[C@H](CC(C)C)NC(=O)[C@@H](N)CCCNC(=N)N)NC(=O)[C@H](CCCNC(=N)N)NC(=O)[C@H](Cc1ccc(O)cc1)NC(=O)[C@H](CC(C)C)NC(=O)[C@@H](N)CCCNC(=N)N)C(N)=O [O5R] (HELM PEPTIDE1{R.L.Y.R.[Orn].[Orn].[Orn].[Orn].[am]}|PEPTIDE2{R.L.Y.R}|PEPTIDE3{R.L.Y.R}|PEPTIDE4{R.L.Y.R}|PEPTIDE5{R.L.Y.R}$PEPTIDE1,PEPTIDE2,8:R3-4:R2|PEPTIDE1,PEPTIDE3,7:R3-4:R2|PEPTIDE1,PEPTIDE4,6:R3-4:R2|PEPTIDE1,PEPTIDE5,5:R3-4:R2$$$V2.0; N-terminus assumed)",0.7,0.7,6.5,5.4,1.5,0.9,3.1,2.0,2.3,0.9,2.4,1.8,0.7,1.1,19.2,8.1,> 500,10.2,1.7,1.3,
CC(=O)N[C@@H](CCCCNC(=O)[C@H](CCCNC(=N)N)NC(=O)[C@H](Cc1ccc(O)cc1)NC(=O)[C@H](CC(C)C)NC(=O)[C@@H](N)CCCNC(=N)N)C(=O)N[C@@H](CCCCNC(=O)[C@H](CCCNC(=N)N)NC(=O)[C@H](Cc1ccc(O)cc1)NC(=O)[C@H](CC(C)C)NC(=O)[C@@H](N)CCCNC(=N)N)C(=O)N[C@@H](CCCCNC(=O)[C@H](CCCNC(=N)N)NC(=O)[C@H](Cc1ccc(O)cc1)NC(=O)[C@H](CC(C)C)NC(=O)[C@@H](N)CCCNC(=N)N)C(N)=O [K3R],0.7,0.8,0.6,0.6,0.7,1.0,0.7,0.9,0.8,0.7,0.8,0.7,0.6,1.1,1.0,0.6,1.3,1.0,0.8,0.7,
CC(=O)N[C@@H](CCCNC(=O)[C@H](CCCNC(=N)N)NC(=O)[C@H](Cc1ccc(O)cc1)NC(=O)[C@H](CC(C)C)NC(=O)[C@@H](N)CCCNC(=N)N)C(=O)N[C@@H](CCCNC(=O)[C@H](CCCNC(=N)N)NC(=O)[C@H](Cc1ccc(O)cc1)NC(=O)[C@H](CC(C)C)NC(=O)[C@@H](N)CCCNC(=N)N)C(=O)N[C@@H](CCCNC(=O)[C@H](CCCNC(=N)N)NC(=O)[C@H](Cc1ccc(O)cc1)NC(=O)[C@H](CC(C)C)NC(=O)[C@@H](N)CCCNC(=N)N)C(=O)N[C@@H](CCCNC(=O)[C@H](CCCNC(=N)N)NC(=O)[C@H](Cc1ccc(O)cc1)NC(=O)[C@H](CC(C)C)NC(=O)[C@@H](N)CCCNC(=N)N)C(N)=O [O4R],,,,,,,,,,,,,,,,,,,,,"MIC, C. kefyr, H-Salt (Candida kefyr ATCC 37095; ATCC 37095, radial diffusion assay, high-salt (100 mM NaCl), triplicates): 0.8 µM; MIC, C. kefyr, L-Salt (Candida kefyr ATCC 37095; ATCC 37095, radial diffusion assay, low-salt (without NaCl), triplicates): 0.7 µM; MIC, S. aureus, H-Salt ([1]; strain 29213, radial diffusion assay, high-salt (100 mM NaCl), triplicates): 2.0 µM; MIC, S. aureus, L-Salt ([1]; strain 29213, radial diffusion assay, low-salt (without NaCl), triplicates): 7.3 µM; MIC, C. albicans, H-Salt ([2]; ATCC 37092, radial diffusion assay, high-salt (100 mM NaCl), triplicates): 1.6 µM; MIC, C. albicans, L-Salt ([2]; ATCC 37092, radial diffusion assay, low-salt (without NaCl), triplicates): 1.4 µM; MIC, P. aeruginosa, H-Salt ([3]; ATCC 27853, radial diffusion assay, high-salt (100 mM NaCl), triplicates): 4.8 µM; MIC, P. aeruginosa, L-Salt ([3]; ATCC 27853, radial diffusion assay, low-salt (without NaCl), triplicates): 2.1 µM; MIC, E. coli, H-Salt ([4]; ATCC 25922, two-stage radial diffusion assay, high-salt (underlay gel 10 mM sodium phosphate, 0.03% TSB, 0.02% Tween-20, with 100 mM NaCl), 37 °C, x-intercept of dose-response curve, triplicates): 4.1 µM; MIC, E. coli, L-Salt ([4]; ATCC 25922, two-stage radial diffusion assay, low-salt (underlay gel 10 mM sodium phosphate, 0.03% TSB, 0.02% Tween-20, without NaCl), 37 °C, x-intercept of dose-response curve, triplicates): 0.7 µM; MIC, K. oxytoca, H-Salt ([5]; ATCC 49131, radial diffusion assay, high-salt (100 mM NaCl), triplicates): 2.4 µM; MIC, K. oxytoca, L-Salt ([5]; ATCC 49131, radial diffusion assay, low-salt (without NaCl), triplicates): 1.8 µM; MIC, C. tropicalis, H-Salt ([6]; ATCC 37097, radial diffusion assay, high-salt (100 mM NaCl), triplicates): 1.5 µM; MIC, C. tropicalis, L-Salt ([6]; ATCC 37097, radial diffusion assay, low-salt (without NaCl), triplicates): 1.4 µM; MIC, P. vulgaris, H-Salt ([7]; ATCC 49132, radial diffusion assay, high-salt (100 mM NaCl), triplicates): 2.2 µM; MIC, P. vulgaris, L-Salt ([7]; ATCC 49132, radial diffusion assay, low-salt (without NaCl), triplicates): 5.6 µM; MIC, E. faecalis, H-Salt ([8]; ATCC 29212, radial diffusion assay, high-salt (100 mM NaCl), triplicates): > 500 µM; MIC, E. faecalis, L-Salt ([8]; ATCC 29212, radial diffusion assay, low-salt (without NaCl), triplicates): 6.6 µM; MIC, M. luteus, H-Salt ([9]; ATCC 49,732, radial diffusion assay, high-salt (100 mM NaCl), triplicates): 6.9 µM; MIC, M. luteus, L-Salt ([9]; ATCC 49,732, radial diffusion assay, low-salt (without NaCl), triplicates): 1.8 µM"
"CC(=O)NCCC[C@H](NC(=O)[C@H](CCCNC(=N)N)NC(=O)[C@H](Cc1ccc(O)cc1)NC(=O)[C@H](CC(C)C)NC(=O)[C@@H](N)CCCNC(=N)N)C(=O)NCCC[C@H](NC(=O)[C@H](CCCNC(=N)N)NC(=O)[C@H](Cc1ccc(O)cc1)NC(=O)[C@H](CC(C)C)NC(=O)[C@@H](N)CCCNC(=N)N)C(=O)NCCC[C@H](NC(=O)[C@H](CCCNC(=N)N)NC(=O)[C@H](Cc1ccc(O)cc1)NC(=O)[C@H](CC(C)C)NC(=O)[C@@H](N)CCCNC(=N)N)C(N)=O [iO3R] (HELM PEPTIDE1{R.L.Y.R.[Orn]}|PEPTIDE2{[ac]}|PEPTIDE3{R.L.Y.R.[Orn]}|PEPTIDE4{R.L.Y.R.[Orn].[am]}$PEPTIDE1,PEPTIDE2,5:R3-1:R2|PEPTIDE1,PEPTIDE3,5:R2-5:R3|PEPTIDE3,PEPTIDE4,5:R2-5:R3$$$V2.0)",2.0,1.3,56.2,17.2,12.4,4.8,3.2,5.8,12.8,1.3,5.4,2.2,2.3,2.8,27.6,8.3,> 500,51.6,8.8,3.1,
